Test results from DBAASP.
Converted amounts (≈) assume the structure as drawn. One block for each molecule: values may come before it.

Columns and labels:
Test in all cases: ≥ marks a high value that may be exact or a test limit, other limits are often not marked, values filed in µg/mL are converted to µM
[1] = tested on: Franconibacter helveticus DSM 18396
[2] = tested on: Escherichia coli DH5alpha
[3] = tested on: Kocuria rhizophila DSM 348
[4] = tested on: Bacillus subtilis DSM 347
[5] = tested on: Staphylococcus aureus 68 HER 1049
[6] = tested on: Escherichia coli K12 MG1655
[7] = tested on: Staphylococcus aureus ATCC 29313
[8] = tested on: Escherichia coli ATCC 25922
[9] = tested on: Pseudomonas aeruginosa PA006
[10] = tested on: Pseudomonas aeruginosa Pa1-SA2
[11] = tested on: Salmonella enterica subsp. enterica serovar Typhimurium ATCC 14028
[12] = tested on: Klebsiella pneumoniae ATCC 700603
[13] = tested on: Pseudomonas aeruginosa ATCC 27853
[14] = tested on: Pseudomonas aeruginosa Pa4-SA2
[15] = tested on: Pseudomonas aeruginosa PAO1
[16] = tested on: Listeria monocytogenes ATCC 7644
[17] = tested on: Bacillus subtilis ATCC 23858
[18] = tested on: Bacillus cereus ATCC 14579
[19] = tested on: Staphylococcus aureus ATCC 33591
Escherichia coli IS117# = tested on: Escherichia coli IS117#
[20] = tested on: Candida albicans ATCC 2002
[21] = tested on: Pseudomonas aeruginosa CMCCB 1010
Escherichia coli IS37# = tested on: Escherichia coli IS37#
[22] = tested on: Staphylococcus aureus IS37#
[23] = tested on: Candida parapsilosis ATCC 22019
[24] = tested on: Staphylococcus aureus ATCC 25923
[25] = tested on: Enterobacter cloacae ATCC 13047
[26] = tested on: Enterococcus faecalis ATCC 29212
Shigella dysenteriae = tested on: Shigella dysenteriae
[27] = tested on: Staphylococcus aureus IS10#
[28] = tested on: Candida albicans ATCC 90028
[29] = tested on: Cryptococcus neoformans L26
Candida parapsilosis = tested on: Candida parapsilosis
[30] = tested on: Trichophyton mentagrophytes
Trichophyton rubrum = tested on: Trichophyton rubrum
Candida albicans 38U = tested on: Candida albicans 38U
[31] = tested on: Cryptococcus neoformans L30
Candida albicans 01U = tested on: Candida albicans 01U
[32] = tested on: Bacillus subtilis ATCC 6051
[33] = tested on: Escherichia coli NEB5alpha

SMILES: CC[C@H](C)[C@H](NC(=O)CN)C(=O)NCC(=O)N[C@@H](CCCCN)C(=O)N[C@@H](Cc1ccccc1)C(=O)N[C@@H](CC(C)C)C(=O)N[C@@H](Cc1cnc[nH]1)C(=O)N[C@@H](CO)C(=O)N[C@@H](C)C(=O)N[C@@H](CCCCN)C(=O)N[C@@H](CCCCN)C(=O)N[C@@H](Cc1ccccc1)C(=O)NCC(=O)N[C@@H](CCCCN)C(=O)N[C@@H](C)C(=O)N[C@@H](Cc1ccccc1)C(=O)N[C@@H](C)C(=O)NCC(=O)N[C@@H](CCC(=O)O)C(=O)N[C@H](C(=O)N[C@@H](CCSC)C(=O)N[C@@H](CC(N)=O)C(=O)N[C@@H](CO)C(=O)O)[C@@H](C)CC [GIGKFLHSAKKFGKAFAGEIMNS]
- MIC [1]: ≥ 64 µM
- MIC [2]: ≥ 64 µM
- MIC [3]: ≥ 64 µM
- MIC [4]: 8 µM (≈ 19.5 µg/mL)

SMILES: CC[C@H](C)[C@H](NC(=O)[C@H](CCCCN)NC(=O)CNC(=O)[C@@H](NC(=O)[C@H](C)NC(=O)[C@H](Cc1cnc[nH]1)NC(=O)[C@H](C)NC(=O)[C@@H](NC(=O)[C@H](CC(C)C)NC(=O)[C@H](CCC(N)=O)NC(=O)[C@H](CCCCN)NC(=O)CNC(=O)[C@H](C)NC(=O)[C@H](CC(=O)O)NC(=O)[C@H](CCCCN)NC(=O)[C@@H](NC(=O)[C@@H](NC(=O)[C@H](CC(=O)O)NC(=O)[C@H](Cc1ccccc1)NC(=O)[C@@H](NC(=O)CN)C(C)C)[C@@H](C)CC)[C@@H](C)CC)C(C)C)[C@@H](C)O)C(=O)N[C@@H](C)C(=O)N[C@@H](CCC(=O)O)C(=O)N[C@@H](CCCCN)C(=O)N[C@H](C(N)=O)C(C)C [GVFDIIKDAGKQLVAHATGKIAEKV]
- MIC [7]: ≥ 307 µM
- MIC [8]: > 307 µM
- MIC [9]: 6.13 µM (≈ 16 µg/mL)
- MIC [10]: ≥ 98.1 µM
- MIC [11]: > 307 µM
- MIC [12]: > 307 µM
- MIC [13]: 392 µM (≈ 1020 µg/mL)
- MIC [14]: ≥ 49.1 µM
- MIC [15]: 196 µM (≈ 512 µg/mL)

SMILES: CC[C@H](C)[C@H](NC(=O)[C@H](CC(C)C)NC(=O)[C@@H]1CCCN1C(=O)[C@H](CC(C)C)NC(=O)[C@@H](N)Cc1ccccc1)C(=O)N[C@@H](CC(C)C)C(=O)N1CCC[C@H]1C(=O)N[C@@H](CO)C(=O)N[C@H](C(=O)N[C@H](C(=O)N[C@H](C(=O)N[C@@H](C)C(=O)N[C@@H](CC(C)C)C(=O)N[C@@H](CO)C(=O)N[C@@H](CO)C(=O)N[C@@H](Cc1ccccc1)C(=O)N[C@@H](CC(C)C)C(=O)N[C@@H](CCCCN)C(=O)N[C@@H](CCC(N)=O)C(=O)NCC(=O)O)[C@@H](C)O)C(C)C)[C@@H](C)CC [FLPLILPSIVTALSSFLKQG]
- MIC [16]: ≥ 46.6 µM
- MIC [17]: 23.3 µM (≈ 50 µg/mL)
- MIC [18]: 23.3 µM (≈ 50 µg/mL)
- MIC [19]: 11.7 µM (≈ 25.1 µg/mL)

SMILES: CC[C@H](C)[C@H](NC(=O)[C@H](CC(C)C)NC(=O)[C@@H]1CCCN1C(=O)[C@H](Cc1ccccc1)NC(=O)[C@@H](N)Cc1ccccc1)C(=O)N[C@@H](C)C(=O)NCC(=O)N[C@@H](CC(C)C)C(=O)N[C@@H](C)C(=O)N[C@@H](C)C(=O)N[C@@H](CCCN=C(N)N)C(=O)N[C@@H](Cc1ccccc1)C(=O)N[C@@H](CC(C)C)C(=O)N1CCC[C@H]1C(=O)N[C@@H](CCCCN)C(=O)N[C@H](C(=O)N[C@@H](Cc1ccccc1)C(=O)N[C@H]1CSSC[C@@H](C(=O)O)NC(=O)[C@H](CCCN=C(N)N)NC(=O)[C@H](CCCCN)NC(=O)[C@H]([C@@H](C)O)NC(=O)[C@H]([C@@H](C)CC)NC(=O)[C@H](CO)NC1=O)[C@@H](C)CC [FFPLIAGLAARFLPKIFCSITKRC]
- MIC (Escherichia coli IS117#): 3.69 µM (≈ 9.99 µg/mL)
- MIC [20]: 1.84 µM (≈ 5 µg/mL)
- MIC [21]: 1.84 µM (≈ 5 µg/mL)
- MIC (Escherichia coli IS37#): 0.921 µM (≈ 2.5 µg/mL)
- MIC [22]: 1.84 µM (≈ 5 µg/mL)
- MIC [8]: 0.368 µM (≈ 0.999 µg/mL)
- MIC [23]: 7.37 µM (≈ 20 µg/mL)
- MIC [24]: 1.84 µM (≈ 5 µg/mL)
- MIC [25]: 0.921 µM (≈ 2.5 µg/mL)
- MIC [12]: 0.921 µM (≈ 2.5 µg/mL)
- MIC [26]: 1.84 µM (≈ 5 µg/mL)
- MIC (Shigella dysenteriae): 3.69 µM (≈ 9.99 µg/mL)
- MIC [27]: 3.69 µM (≈ 9.99 µg/mL)
- MIC [13]: 3.69 µM (≈ 9.99 µg/mL)
- MIC [28]: 3.69 µM (≈ 9.99 µg/mL)

Further lines, results first:

- MIC [5]: 3.65 µM (≈ 8 µg/mL)
- MIC [6]: 1.82 µM (≈ 4 µg/mL)
SMILES: CC[C@H](C)[C@H](NC(=O)[C@H](CCCN=C(N)N)NC(=O)[C@H](CCCCN)NC(=O)[C@H](Cc1c[nH]c2ccccc12)NC(=O)[C@H](CCCN=C(N)N)NC(=O)[C@H](CCCCN)NC(=O)[C@H](Cc1c[nH]c2ccccc12)NC(=O)[C@@H](N)Cc1c[nH]c2ccccc12)C(=O)N[C@@H](CCCN=C(N)N)C(=O)N[C@@H](CCCN=C(N)N)C(=O)N[C@H](C(=O)N[C@@H](Cc1ccccc1)C(=O)N[C@@H](CCSC)C(=O)N[C@@H](CCSC)C(=O)N[C@H](C(=O)O)C(C)C)[C@@H](C)CC [WWKRWKRIRRIFMMV]

- MIC [29]: ≥ 173 µM
- MIC (Candida parapsilosis): ≥ 173 µM
- MIC [30]: ≥ 173 µM
- MIC (Trichophyton rubrum): ≥ 86.3 µM
- MIC (Candida albicans 38U): ≥ 43.1 µM
- MIC [31]: ≥ 173 µM
- MIC (Candida albicans 01U): ≥ 86.3 µM
SMILES: CC[C@H](C)[C@H](NC(=O)[C@H](CC(C)C)NC(=O)[C@H](CCC(=O)O)NC(=O)[C@H](CO)NC(=O)[C@H](CCCN=C(N)N)NC(=O)[C@@H](N)CO)C(=O)N[C@H](C(=O)N[C@@H](Cc1cnc[nH]1)C(=O)N[C@@H](CCC(N)=O)C(=O)N[C@@H](CCCN=C(N)N)C(=O)N[C@@H](CCCN=C(N)N)C(=O)N[C@@H](CS)C(N)=O)C(C)C [SRSELIVHQRRC]

- MIC [32]: 23.6 µM (≈ 68.8 µg/mL)
- MIC [33]: ≥ 47.2 µM
- MIC [8]: 189 µM (≈ 550 µg/mL)
SMILES: CC[C@H](C)[C@H](NC(=O)[C@@H]1CCCN1C(=O)[C@H](Cc1cnc[nH]1)NC(=O)[C@H](CCCCN)NC(=O)[C@@H]1CCCN1C(=O)[C@@H](N)CCCN=C(N)N)C(=O)N[C@@H](CCCCN)C(=O)N[C@@H](Cc1cnc[nH]1)C(=O)N[C@@H](CCC(N)=O)C(=O)NCC(=O)N[C@@H](CC(C)C)C(=O)N1CCC[C@H]1C(=O)N[C@@H](CCC(N)=O)C(=O)N[C@@H](CCC(=O)O)C(=O)N[C@H](C(=O)N[C@@H](CC(C)C)C(=O)N[C@@H](CC(N)=O)C(=O)N[C@@H](CCC(=O)O)C(=O)N[C@@H](CC(N)=O)C(=O)N[C@@H](CC(C)C)C(=O)N[C@@H](CC(C)C)C(=O)N[C@@H](CCCN=C(N)N)C(=O)N[C@@H](Cc1ccccc1)C(=O)N[C@@H](Cc1ccccc1)C(=O)O)C(C)C [RPKHPIKHQGLPQEVLNENLLRFF]
